Measured values reported in patent publication US9771389B2, “Tylosin derivatives and method for preparation thereof” (BAYER ANIMAL HEALTH GMBH, priority 2013, dated 2017).
Converted amounts (≈) assume the structure as drawn.

Assays:
[1] = tested on: M. hemolytica KB346 (Tilmicosin-low sensitivity strain); assay: Paper disc assay, M. hemolytica KB346; assay type: cell-based, Mannhemia hemolytica
Experimental: (§1) (1) Antibacterial activities against Mannheimia and Pasteurella were determined by the following steps: • 1) M. hemolytica KB345 (Tilmicosin-sensitivity strain) and M. hemolytica KB346 (Tilmicosin-low sensitivity strain) were provided. KB 345 strain stored at −80° C. was seeded to BHIB agar medium (10 mL) by using Microbank beads (Pro-Lab) and platinum nail. After statically incubating the KB 345 strain for 24 hours at 37° C., it was seeded to maintaining slant BHIB agar medium (7 mL) by using platinum loop, further statically incubated for 24 hours at 37° C. to obtain slant. One platinum loop of KB 345 strain stored at the slant was inoculated into a large test tube charged with BHIB liquid medium (10 mL) and then incubated for 24 hours at 37° C. with shaking. • 2) A paper disc (ADVANTEC, Φ:6 mm) was impregnated with a solution of test compound and dried under reduced pressure. • 3) To a melted BHIB agar medium was inoculated 1% of the broth obtained from step 1) above to prepare a test plate. After the medium set, the paper disc prepared in step 2) above was put on the plate and it was incubated at 37° C. • 4) After one day, the inhibition zone diameter and clarity (A to E) were determined. For KB346 strain, the same procedures were repeated.

[2] = tested on: M. hemolytica KB345 (Tilmicosin-sensitivity strain); assay: Paper disc assay, M. hemolytica KB345; assay type: cell-based, Mannhemia hemolytica
Experimental: as §1

Streptococcus agalactiae = assay: MIC50 mastitis pathogens, broth dilution; assay type: cell-based; settings: Str agalactiae, 7 to 12 isolates, 24 hours
Text: (§2) The activity of several compounds against bacterial mastitis pathogens has been tested under in-vitro conditions according to a recognized procedure (CLSI, document […]-A3, 2008). In this test 7 to 12 representative bacteria belonging to 7 bacterial species that typically cause mastitis in dairy cattle, i.e. Staphylococcus aureus, coagulase negative staphylococci (CNS), Streptococcus uberis, Streptococus dysgalactiae, Streptococcus agalactiae, Arcanobacterium pyogenes and Escherichia coli, were exposed to two-fold dilutions of the test compounds. After 24 hours of incubation the concentration that inhibited the growth of this bacteria was determined. It could be shown that all these bacterial mastitis pathogens were highly susceptible to the test compounds.

[3] = tested on: coagulase negative staphylococci (CNS); assay: MIC50 mastitis pathogens, broth dilution; assay type: cell-based; settings: 7 to 12 isolates, 24 hours
Text: as §2

Streptococcus uberis = assay: MIC50 mastitis pathogens, broth dilution; assay type: cell-based; settings: Str uberis, 7 to 12 isolates, 24 hours
Text: as §2

Staphylococcus aureus = assay: MIC50 mastitis pathogens, broth dilution; assay type: cell-based; settings: S. aureus, 7 to 12 isolates, 24 hours
Text: as §2

Arcanobacterium pyogenes = assay: MIC50 mastitis pathogens, broth dilution; assay type: cell-based; settings: Trueperella pyogenes, A. pyogenes, 7 to 12 isolates, 24 hours
Text: as §2

Escherichia coli = assay: MIC50 mastitis pathogens, broth dilution; assay type: cell-based; settings: E. coli, 7 to 12 isolates, 24 hours
Text: as §2

[4] = tested on: Streptococus dysgalactiae; assay: MIC50 mastitis pathogens, broth dilution; assay type: cell-based; settings: Str dysgalactiae, 7 to 12 isolates, 24 hours
Text: as §2

[5] = tested on: Mannheimia haemolytica, 3 isolates; assay: MIC against Mannheimia haemolytica isolates; assay type: cell-based
Experimental: (§3) Minimal inhibitory concentrations (MICs) were determined against the most prevalent pathogens in cattle (Mannheimia Haemolytica, 3 isolates) and swine (A. pleuropneumoniae, 6 isolates). In addition the activity of several compounds was tested against two bacterial species, i.e. Mannheimia haemolytica and Actinobacillus pleuropneumoniae, which are considered as the most important bacterial respiratory pathogens in cattle and swine, respectively.

[6] = tested on: Actinobacillus pleuropneumoniae, 6 isolates; assay: MIC against Actinobacillus pleuropneumoniae isolates; assay type: cell-based
Experimental: as §3

[7] = tested on: Micrococcus luteus ATCC9341; assay: Paper disc assay, Micrococcus luteus; assay type: cell-based; settings: column 1
Experimental: (§4) (2) Antibacterial activities against other bacteria were determined with Micrococcus luteus ATCC9341 (1), Bacillus subtilis […] (s), Escherichia coli NIHJ (c), Xanthomonas campestris KB88 (X), Mucor racemosus IFO 4581 (Mu) and Candida albicans ATCC 64548 (Ca).
(§5) Bacillus subtilis ATCC6633 was incubated in Davis synthetic medium and then the seed broth was combined with the medium in the ratio of 1:99 to obtain a test plate. Micrococcus luteus ATCC9341, Escherichia coli NIHJ and Xanthomonas campestris KB88 were respectively incubated in Nutrient agar medium and inoculated at 0.2%, 0.5% and 1.0%. Mucor racemosus IFO 4581 and Candida albicans ATCC 64548 were respectively incubated in GY agar medium and then inoculated at 0.3% and 0.2%.
(§6) A paper disc (ADVANTEC, Φ:6 mm) was impregnated with a solution of test compound and dried under reduced pressure. The paper disc was put on the test plate and it was incubated for 24 hours at 37° C. After incubation, the inhibition zone diameter and clarity (A to E) were determined.

[8] = tested on: Xanthomonas campestris KB88; assay: Paper disc assay, Xanthomonas campestris; assay type: cell-based; settings: X
Experimental: as §4, §5, §6

[9] = tested on: Bacillus subtilis ATCC6633; assay: Paper disc assay, Bacillus subtilis; assay type: cell-based; settings: S
Experimental: as §4, §5, §6

Row | SMILES | MIC50 (Streptococcus agalactiae) [µg/mL] | MIC50 [3] [µg/mL] | MIC50 (Streptococcus uberis) [µg/mL] | MIC50 (Staphylococcus aureus) [µg/mL] | MIC50 (Arcanobacterium pyogenes) [µg/mL] | MIC50 (Escherichia coli) [µg/mL] | MIC50 [4] [µg/mL] | Inhibition zone ([1]; 100 mg/6 mm disk, Table 5) [mm] | Inhibition zone ([2]; 10 mg/6 mm disk, Table 4) [mm] | Inhibition zone ([2]; 30 mg/6 mm disk, Table 4) [mm] | Inhibition zone ([2]; 100 mg/6 mm disk, Table 4) [mm] | further results
1 | CC[C@H]1OC(=O)C[C@@H](O)[C@H](C)[C@@H](O[C@@H]2O[C@H](C)[C@@H](O)[C@H](N(C)C)[C@H]2O)[C@@H](CC=O)C[C@@H](C)C(=O)/C=C/C(C)=C/[C@@H]1CO[C@@H]1O[C@H](C)[C@@H](O)[C@@H](OC)[C@H]1OC [YT6, Desmycosin] |  |  |  |  |  |  |  |  |  |  |  | Inhibition zone ([1]; 3 mg/6 mm disk, Table 3): 8.5 mm; Inhibition zone ([1]; 10 mg/6 mm disk, Table 3): 13.5 mm; Inhibition zone ([1]; 30 mg/6 mm disk, Table 3): 17.5 mm; Inhibition zone ([1]; 100 mg/6 mm disk, Table 3): 21.0 mm; Inhibition zone ([2]; 30 mg/6 mm disk, Table 2): 10.5 mm
2 | CC[C@H]1OC(=O)C[C@@H](O)[C@H](C)[C@@H](O[C@@H]2OC(C)[C@@H](O)C(N(C)C)C2O)[C@@H](CCNCc2cn(-c3cnc4ccccc4c3)nn2)C[C@@H](C)C(=O)/C=C/C(C)=C/[C@@H]1CO (stereo partly drawn) [YT739] | 0.03 (≈ 0.0372 µM) | 0.25 (≈ 0.31 µM) | 0.03 (≈ 0.0372 µM) | 0.5 (≈ 0.62 µM) | 0.008 (≈ 0.00991 µM) | 8 (≈ 9.91 µM) | 0.12 (≈ 0.149 µM) |  |  |  |  | 
3 | CCC1OC(=O)CC(O)C(C)C(OC2OC(C)C(O)C(N(C)C)C2O)C(CCn2cc(-c3ccccc3)nn2)CC(C)C(=O)C=CC(C)=CC1CO (stereo not drawn) [YT112, 20-(4-phenyl-1H-1,2,3-triazol-1-yl)-20-deoxo-5-O-mycaminosyltylonolide] |  |  |  |  |  |  |  | 11.5 | 20.0 | 25.0 | 29.0 | MICs ([5]; M. haemolytica isolate 1): 8 µg/mL; MICs ([5]; M. haemolytica isolate 2): 4 µg/mL; MICs ([5]; M. haemolytica isolate 3): 8 µg/mL; MICs ([6]; pleuropneumoniae isolate 1): 4 µg/mL; MICs ([6]; pleuropneumoniae isolate 2): 4 µg/mL; MICs ([6]; pleuropneumoniae isolate 3): 4 µg/mL; MICs ([6]; pleuropneumoniae isolate 4): 8 µg/mL; MICs ([6]; pleuropneumoniae isolate 5): 4 µg/mL; MICs ([6]; pleuropneumoniae isolate 6): 8 µg/mL; Inhibition zone ([2]; 3 mg/6 mm disk, Table 4): 17.0 mm
4 | CCC1OC(=O)CC(O)C(C)C(OC2OC(C)C(O)C(N(C)C)C2O)C(CC=O)CC(C)C(=O)C=CC(C)=CC1CI (stereo not drawn) [YT111] |  |  |  |  |  |  |  | 13.0 | 15.5 | 20.0 | 25.0 | Inhibition zone ([1]; 30 mg/6 mm disk, Table 5): 8.5 mm; Inhibition zone ([2]; 3 mg/6 mm disk, Table 4): 11.5 mm
5 | CC[C@H]1OC(=O)C[C@@H](O)[C@H](C)[C@@H](O[C@@H]2O[C@H](C)[C@@H](O)[C@H](N(C)C)[C@H]2O)[C@@H](CC=O)C[C@@H](C)C(=O)/C=C/C(C)=C/[C@@H]1CO [YT106, 5-O-mycaminosyltylonolide] |  |  |  |  |  |  |  | 17.0 | 8.5 | 12.5 | 15.0 | Inhibition zone ([1]; 10 mg/6 mm disk, Table 5): 9.0 mm; Inhibition zone ([1]; 30 mg/6 mm disk, Table 5): 13.0 mm
6 | CC[C@H]1OC(=O)C[C@@H](O)[C@H](C)[C@@H](O[C@@H]2OC(C)[C@@H](O)C(N(C)C)C2O)[C@@H](CCN(C)Cc2cn(-c3cnc4ccccc4c3)nn2)C[C@@H](C)C(=O)/C=C/C(C)=C/[C@@H]1CO (stereo partly drawn) [YT650] | 0.008 (≈ 0.00974 µM) | 0.25 (≈ 0.304 µM) | 0.03 (≈ 0.0365 µM) | 0.25 (≈ 0.304 µM) | 0.004 (≈ 0.00487 µM) | 8 (≈ 9.74 µM) | 0.03 (≈ 0.0365 µM) |  |  |  |  | 
7 | CCC1OC(=O)CC(O)C(C)C(OC2OC(C)C(O)C(N(C)C)C2O)C(CCCl)CC(C)C(=O)C=CC(C)=CC1COC1OC(C)C(O)C(OC)C1OC (stereo not drawn) [YT8, 20-chloro-20-deoxodesmycosin] |  |  |  |  |  |  |  |  |  |  |  | Inhibition zone ([1]; 30 mg/6 mm disk, Table 3): 11.0 mm; Inhibition zone ([1]; 100 mg/6 mm disk, Table 3): 14.5 mm; Inhibition zone ([2]; 10 mg/6 mm disk, Table 2): 12.5 mm; Inhibition zone ([2]; 30 mg/6 mm disk, Table 2): 18.0 mm; Inhibition zone ([2]; 100 mg/6 mm disk, Table 2): 20.0 mm
8 | CC[C@H]1OC(=O)C[C@@H](O)[C@H](C)[C@@H](O[C@@H]2OC(C)[C@@H](O)C(N(C)C)C2O)[C@@H](CCN(C)Cc2cn(-c3cnc4ccccc4c3)nn2)C[C@@H](C)C(=O)/C=C/C(C)=C/[C@@H]1CN1CCCCC1 (stereo partly drawn) [YT769] | ≤ 0.015 | 0.25 (≈ 0.281 µM) | ≤ 0.015 | 0.25 (≈ 0.281 µM) | ≤ 0.015 | 4 (≈ 4.5 µM) | ≤ 0.015 |  |  |  |  | 
9 | CC[C@H]1OC(=O)C[C@@H](O)[C@H](C)[C@@H](O[C@@H]2OC(C)[C@@H](O)C(N(C)C)C2O)[C@@H](CCn2cc(-c3ccccn3)nn2)C[C@@H](C)C(=O)/C=C/C(C)=C/[C@@H]1CO[C@@H]1OC(C)[C@@H](O)C(OC)C1OC (stereo partly drawn) [YT12, 20-(4-(pyridine-2-yl)-1H-1,2,3-triazol-1-yl)-20-deoxodesmycosin] |  |  |  |  |  |  |  |  |  |  |  | Inhibition zone ([7]; 0.1 mg/6 mm disc): 12 mm; Inhibition zone ([7]; 1 mg/6 mm disc): 18.5 mm; Inhibition zone ([7]; 10 mg/6 mm disc): 25 mm; Inhibition zone ([8]; 0.1 mg/6 mm disc): 7 mm; Inhibition zone ([8]; 10 mg/6 mm disc): 27 mm; Inhibition zone ([9]; 0.1 mg/6 mm disc): 7 mm; Inhibition zone ([9]; 1 mg/6 mm disc): 12.5 mm; Inhibition zone ([9]; 10 mg/6 mm disc): 14 mm
10 | CCC1OC(=O)CC(O)C(C)C(OC2OC(C)C(O)C(N(C)C)C2O)C(CC=O)CC(C)C(=O)C=CC(C)=CC1CN=[N+]=[N-] (stereo not drawn) [YT107, 23-azido-23-deoxo-5-O-mycaminosyltylonolide] |  |  |  |  |  |  |  | 15.0 | 16.0 | 18.0 | 21.5 | Inhibition zone ([1]; 30 mg/6 mm disk, Table 5): 10.5 mm; Inhibition zone ([2]; 3 mg/6 mm disk, Table 4): 12.0 mm
11 | CCC1OC(=O)CC(O)C(C)C(OC2OC(C)C(O)C(N(C)C)C2O)C(CCN=[N+]=[N-])CC(C)C(=O)C=CC(C)=CC1COC1OC(C)C(O)C(OC)C1OC (stereo not drawn) [YT11, 20-azido-20-deoxodesmycosin] |  |  |  |  |  |  |  |  |  |  |  | Inhibition zone ([1]; 100 mg/6 mm disk, Table 3): 11.0 mm; Inhibition zone ([2]; 3 mg/6 mm disk, Table 2): 10.0 mm; Inhibition zone ([2]; 10 mg/6 mm disk, Table 2): 13.0 mm; Inhibition zone ([2]; 30 mg/6 mm disk, Table 2): 16.0 mm; Inhibition zone ([2]; 100 mg/6 mm disk, Table 2): 18.0 mm
12 | CC[C@H]1OC(=O)C[C@@H](O)[C@H](C)[C@@H](O[C@@H]2OC(C)[C@@H](O)C(N(C)C)C2O)[C@@H](CCN(Cc2ccccc2)Cc2cn(-c3ccc4ccccc4c3)nn2)C[C@@H](C)C(=O)/C=C/C(C)=C/[C@@H]1CO (stereo partly drawn) [YT762] | 0.03 (≈ 0.0335 µM) | 0.25 (≈ 0.279 µM) | 0.03 (≈ 0.0335 µM) | 1 (≈ 1.12 µM) | 0.015 (≈ 0.0167 µM) | 8 (≈ 8.93 µM) | 0.12 (≈ 0.134 µM) |  |  |  |  | 
13 | CC[C@H]1OC(=O)C[C@@H](O)[C@H](C)[C@@H](O[C@@H]2OC(C)[C@@H](O)C(N(C)C)C2O)[C@@H](CCN(C)Cc2cn(-c3cnc4ccccc4c3)nn2)C[C@@H](C)C(=O)/C=C/C(C)=C/[C@@H]1CN(C)C (stereo partly drawn) [YT770] | ≤ 0.015 | 0.25 (≈ 0.295 µM) | 0.03 (≈ 0.0354 µM) | 0.25 (≈ 0.295 µM) | ≤ 0.015 | 4 (≈ 4.72 µM) | 0.03 (≈ 0.0354 µM) |  |  |  |  | 
